Test results as given in ChEMBL document CHEMBL1201862, “PubChem BioAssay data set” (2004).
Calls of active or inactive are those of the source.

Assays:
[1] = biological target: T1, Voltage-gated N-type calcium channel alpha-1B subunit/Amyloid beta A4 precursor protein-binding family A member 1 (Homo sapiens, UniProt Q00975+Q02410); format: protein assay
[2] = biological target: T1, Voltage-gated N-type calcium channel alpha-1B subunit/Amyloid beta A4 precursor protein-binding family A member 1; format: protein assay; remark: listed apart in the source
[3] = biological target: T2, Short transient receptor potential channel 4 (Mus musculus, UniProt Q9QUQ5); assay: mouse TRPC4 channel inhibitors, dose response, cell-based, HEK293 TRPC4/mu-opioid, Fluo-4 calcium (AID 434942); format: functional;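 note: potency of inhibitors blocking the TRPC4 calcium response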
T2 sequence (Q9QUQ5 whole entry): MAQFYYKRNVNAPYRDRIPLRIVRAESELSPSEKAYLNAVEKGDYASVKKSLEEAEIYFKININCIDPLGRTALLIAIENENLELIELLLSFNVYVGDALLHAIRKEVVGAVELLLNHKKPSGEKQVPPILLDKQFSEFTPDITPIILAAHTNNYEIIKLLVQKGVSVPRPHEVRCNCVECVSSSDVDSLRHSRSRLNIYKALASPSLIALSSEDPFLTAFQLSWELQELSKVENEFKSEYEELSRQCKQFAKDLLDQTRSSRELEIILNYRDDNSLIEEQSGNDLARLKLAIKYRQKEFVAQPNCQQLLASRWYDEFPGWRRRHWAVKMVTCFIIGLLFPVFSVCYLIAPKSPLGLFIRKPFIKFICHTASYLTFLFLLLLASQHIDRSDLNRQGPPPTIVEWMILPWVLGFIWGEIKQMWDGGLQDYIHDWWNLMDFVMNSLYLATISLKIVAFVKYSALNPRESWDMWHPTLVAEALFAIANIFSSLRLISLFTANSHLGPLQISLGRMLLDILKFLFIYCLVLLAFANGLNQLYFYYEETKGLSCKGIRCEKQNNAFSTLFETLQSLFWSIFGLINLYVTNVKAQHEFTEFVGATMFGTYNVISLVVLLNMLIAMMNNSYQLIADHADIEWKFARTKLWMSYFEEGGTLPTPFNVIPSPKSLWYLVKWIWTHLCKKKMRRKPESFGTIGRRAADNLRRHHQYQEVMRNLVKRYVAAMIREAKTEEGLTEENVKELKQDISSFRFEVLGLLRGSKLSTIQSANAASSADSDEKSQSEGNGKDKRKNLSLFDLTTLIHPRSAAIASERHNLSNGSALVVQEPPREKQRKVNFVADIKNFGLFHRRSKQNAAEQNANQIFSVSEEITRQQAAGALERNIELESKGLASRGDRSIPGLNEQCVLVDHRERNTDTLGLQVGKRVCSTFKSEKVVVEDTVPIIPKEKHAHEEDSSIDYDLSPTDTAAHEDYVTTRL

Vero = assay: cells; format: functional, cell-based; details: Chlorocebus sabaeus
[4] = biological target: Glyceraldehyde-3-phosphate dehydrogenase (Homo sapiens, UniProt P04406)
Sequence of Glyceraldehyde-3-phosphate dehydrogenase (P04406 whole entry): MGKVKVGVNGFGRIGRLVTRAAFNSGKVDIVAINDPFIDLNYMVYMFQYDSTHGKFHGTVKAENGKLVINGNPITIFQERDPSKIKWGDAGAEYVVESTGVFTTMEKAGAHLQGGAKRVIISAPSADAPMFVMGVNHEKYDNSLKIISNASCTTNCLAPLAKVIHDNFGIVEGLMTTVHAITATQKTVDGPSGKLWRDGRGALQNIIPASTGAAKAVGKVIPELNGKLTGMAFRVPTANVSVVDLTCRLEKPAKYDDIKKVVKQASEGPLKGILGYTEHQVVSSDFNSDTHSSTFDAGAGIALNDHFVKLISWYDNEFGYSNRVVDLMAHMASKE

[5] = biological target: Alkaline phosphatase, placental type (Homo sapiens, UniProt P05187); assay: PLAP enzyme inhibitors, confirmation, biochemical, luminescence (AID 1512); format: functional
Sequence of Alkaline phosphatase, placental type (P05187 whole entry): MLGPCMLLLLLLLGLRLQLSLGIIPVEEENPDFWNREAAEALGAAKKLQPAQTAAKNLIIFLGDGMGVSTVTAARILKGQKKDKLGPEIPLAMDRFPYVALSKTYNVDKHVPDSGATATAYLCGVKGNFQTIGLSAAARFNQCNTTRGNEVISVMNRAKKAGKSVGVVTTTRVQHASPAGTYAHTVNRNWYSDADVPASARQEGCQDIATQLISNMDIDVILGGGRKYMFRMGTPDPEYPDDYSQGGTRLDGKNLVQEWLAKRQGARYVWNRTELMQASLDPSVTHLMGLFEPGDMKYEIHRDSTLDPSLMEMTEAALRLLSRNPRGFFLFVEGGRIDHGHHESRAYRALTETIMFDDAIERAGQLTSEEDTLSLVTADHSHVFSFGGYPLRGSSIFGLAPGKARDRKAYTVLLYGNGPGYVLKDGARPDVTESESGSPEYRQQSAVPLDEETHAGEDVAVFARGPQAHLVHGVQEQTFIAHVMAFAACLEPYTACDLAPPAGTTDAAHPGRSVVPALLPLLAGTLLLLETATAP

[6] = biological target: T3, Alkaline phosphatase, tissue-nonspecific isozyme (Homo sapiens, UniProt P05186); assay: human TNAP enzyme inhibitors, SAR follow-up, biochemical, luminescent, dose response (AID 1056)
T3 sequence (P05186 whole entry): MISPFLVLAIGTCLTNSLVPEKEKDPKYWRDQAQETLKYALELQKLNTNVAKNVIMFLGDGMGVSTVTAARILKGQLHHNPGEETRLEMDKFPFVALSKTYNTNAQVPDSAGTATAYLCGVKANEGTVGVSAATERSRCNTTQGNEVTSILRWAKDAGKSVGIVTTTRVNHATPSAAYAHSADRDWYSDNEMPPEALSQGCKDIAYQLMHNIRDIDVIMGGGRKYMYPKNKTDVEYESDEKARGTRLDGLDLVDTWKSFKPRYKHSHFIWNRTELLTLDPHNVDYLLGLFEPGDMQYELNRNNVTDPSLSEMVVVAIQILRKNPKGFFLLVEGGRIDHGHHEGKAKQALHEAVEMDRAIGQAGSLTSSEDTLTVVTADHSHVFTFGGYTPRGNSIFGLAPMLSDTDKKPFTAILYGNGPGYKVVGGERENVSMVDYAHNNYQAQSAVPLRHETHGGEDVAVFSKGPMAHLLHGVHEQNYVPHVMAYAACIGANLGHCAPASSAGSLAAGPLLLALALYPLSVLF

[7] = biological target: T2, Short transient receptor potential channel 4; assay: mouse TRPC4 channel activators, dose response, cell-based, HEK293 TRPC4/mu-opioid, Fluo-4 calcium (AID 434937); format: functional
[8] = inhibitors of intracellular T. cruzi replication, confirmation, NIH3T3 host cells, beta-gal luminescence (AID 2044); format: functional, cell-based;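 note: intracellular parasites grown in NIH/3T3 mouse fibroblasts as host cells; luminescent beta-galactosidase reporter signal from transgenic T. cruzi replicating inside host cells; inhibitors lower the luminescence signal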
[9] = cytotoxicity toward NIH3T3 fibroblasts, dose response, counter-screen, cell-based, ATP luminescence, mouse fibroblasts (AID 2010); format: functional;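 note: cells exposed to compound for about 90 hours before reading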
[10] = biological target: T4, Replicative DNA helicase DnaB (Mycobacterium tuberculosis, UniProt P9WMR3); assay: DnaB intein splicing inhibitors, dose response, biochemical, cell-free fluorescence (AID 449749); format: functional
T4 sequence (P9WMR3 whole entry): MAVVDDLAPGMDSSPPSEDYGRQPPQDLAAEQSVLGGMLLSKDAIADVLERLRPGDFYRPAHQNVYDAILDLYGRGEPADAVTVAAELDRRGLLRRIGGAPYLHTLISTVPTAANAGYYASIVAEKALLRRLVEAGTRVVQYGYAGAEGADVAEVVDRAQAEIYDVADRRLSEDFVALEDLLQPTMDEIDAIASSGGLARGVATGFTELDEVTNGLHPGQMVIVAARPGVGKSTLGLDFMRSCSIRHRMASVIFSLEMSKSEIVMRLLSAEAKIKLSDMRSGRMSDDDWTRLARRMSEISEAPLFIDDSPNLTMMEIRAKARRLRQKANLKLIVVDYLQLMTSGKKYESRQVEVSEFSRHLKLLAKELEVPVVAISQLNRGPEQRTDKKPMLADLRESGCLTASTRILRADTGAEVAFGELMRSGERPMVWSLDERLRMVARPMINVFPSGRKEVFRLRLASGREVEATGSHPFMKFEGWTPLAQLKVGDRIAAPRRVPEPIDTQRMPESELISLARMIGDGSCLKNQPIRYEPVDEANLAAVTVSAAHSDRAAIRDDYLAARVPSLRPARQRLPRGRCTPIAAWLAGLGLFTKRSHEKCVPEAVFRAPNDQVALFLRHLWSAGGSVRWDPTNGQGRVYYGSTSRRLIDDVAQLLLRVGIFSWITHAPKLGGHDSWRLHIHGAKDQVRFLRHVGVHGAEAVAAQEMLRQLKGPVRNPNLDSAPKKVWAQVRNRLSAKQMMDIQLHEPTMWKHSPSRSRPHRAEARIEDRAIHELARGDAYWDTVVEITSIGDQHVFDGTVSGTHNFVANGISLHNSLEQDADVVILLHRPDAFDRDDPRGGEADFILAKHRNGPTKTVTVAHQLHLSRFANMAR

Protein RecA = biological target: T5, Protein RecA (Mycobacterium tuberculosis, UniProt P9WHJ3); assay: Fluorescence Cell-Free Homogeneous Dose Retest to Identify Inhibitors of RecA-Intein Splicing Activity. [Related pubchem assays (depositor defined):AID2097, AID2223, AID489010, AID492950]; format: functional
T5 sequence (P9WHJ3 whole entry): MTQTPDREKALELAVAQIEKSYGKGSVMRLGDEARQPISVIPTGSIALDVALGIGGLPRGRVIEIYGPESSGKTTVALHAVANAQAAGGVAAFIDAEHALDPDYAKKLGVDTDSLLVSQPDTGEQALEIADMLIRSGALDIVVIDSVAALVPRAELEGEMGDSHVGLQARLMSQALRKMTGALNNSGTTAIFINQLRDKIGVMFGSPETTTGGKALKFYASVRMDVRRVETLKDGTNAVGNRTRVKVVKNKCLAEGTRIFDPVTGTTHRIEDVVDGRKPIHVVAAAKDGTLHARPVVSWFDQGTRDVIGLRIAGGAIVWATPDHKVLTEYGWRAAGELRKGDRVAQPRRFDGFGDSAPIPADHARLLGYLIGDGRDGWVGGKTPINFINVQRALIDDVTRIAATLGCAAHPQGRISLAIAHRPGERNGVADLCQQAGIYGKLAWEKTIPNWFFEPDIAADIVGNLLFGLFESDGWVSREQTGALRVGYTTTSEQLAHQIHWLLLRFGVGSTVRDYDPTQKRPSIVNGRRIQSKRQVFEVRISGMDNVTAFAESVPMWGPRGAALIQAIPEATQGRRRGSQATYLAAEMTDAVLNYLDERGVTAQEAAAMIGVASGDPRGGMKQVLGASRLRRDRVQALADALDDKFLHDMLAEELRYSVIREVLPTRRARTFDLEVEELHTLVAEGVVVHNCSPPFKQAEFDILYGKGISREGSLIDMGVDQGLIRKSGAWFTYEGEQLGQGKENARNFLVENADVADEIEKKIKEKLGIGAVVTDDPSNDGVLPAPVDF

T1 sequence (Q00975 whole entry): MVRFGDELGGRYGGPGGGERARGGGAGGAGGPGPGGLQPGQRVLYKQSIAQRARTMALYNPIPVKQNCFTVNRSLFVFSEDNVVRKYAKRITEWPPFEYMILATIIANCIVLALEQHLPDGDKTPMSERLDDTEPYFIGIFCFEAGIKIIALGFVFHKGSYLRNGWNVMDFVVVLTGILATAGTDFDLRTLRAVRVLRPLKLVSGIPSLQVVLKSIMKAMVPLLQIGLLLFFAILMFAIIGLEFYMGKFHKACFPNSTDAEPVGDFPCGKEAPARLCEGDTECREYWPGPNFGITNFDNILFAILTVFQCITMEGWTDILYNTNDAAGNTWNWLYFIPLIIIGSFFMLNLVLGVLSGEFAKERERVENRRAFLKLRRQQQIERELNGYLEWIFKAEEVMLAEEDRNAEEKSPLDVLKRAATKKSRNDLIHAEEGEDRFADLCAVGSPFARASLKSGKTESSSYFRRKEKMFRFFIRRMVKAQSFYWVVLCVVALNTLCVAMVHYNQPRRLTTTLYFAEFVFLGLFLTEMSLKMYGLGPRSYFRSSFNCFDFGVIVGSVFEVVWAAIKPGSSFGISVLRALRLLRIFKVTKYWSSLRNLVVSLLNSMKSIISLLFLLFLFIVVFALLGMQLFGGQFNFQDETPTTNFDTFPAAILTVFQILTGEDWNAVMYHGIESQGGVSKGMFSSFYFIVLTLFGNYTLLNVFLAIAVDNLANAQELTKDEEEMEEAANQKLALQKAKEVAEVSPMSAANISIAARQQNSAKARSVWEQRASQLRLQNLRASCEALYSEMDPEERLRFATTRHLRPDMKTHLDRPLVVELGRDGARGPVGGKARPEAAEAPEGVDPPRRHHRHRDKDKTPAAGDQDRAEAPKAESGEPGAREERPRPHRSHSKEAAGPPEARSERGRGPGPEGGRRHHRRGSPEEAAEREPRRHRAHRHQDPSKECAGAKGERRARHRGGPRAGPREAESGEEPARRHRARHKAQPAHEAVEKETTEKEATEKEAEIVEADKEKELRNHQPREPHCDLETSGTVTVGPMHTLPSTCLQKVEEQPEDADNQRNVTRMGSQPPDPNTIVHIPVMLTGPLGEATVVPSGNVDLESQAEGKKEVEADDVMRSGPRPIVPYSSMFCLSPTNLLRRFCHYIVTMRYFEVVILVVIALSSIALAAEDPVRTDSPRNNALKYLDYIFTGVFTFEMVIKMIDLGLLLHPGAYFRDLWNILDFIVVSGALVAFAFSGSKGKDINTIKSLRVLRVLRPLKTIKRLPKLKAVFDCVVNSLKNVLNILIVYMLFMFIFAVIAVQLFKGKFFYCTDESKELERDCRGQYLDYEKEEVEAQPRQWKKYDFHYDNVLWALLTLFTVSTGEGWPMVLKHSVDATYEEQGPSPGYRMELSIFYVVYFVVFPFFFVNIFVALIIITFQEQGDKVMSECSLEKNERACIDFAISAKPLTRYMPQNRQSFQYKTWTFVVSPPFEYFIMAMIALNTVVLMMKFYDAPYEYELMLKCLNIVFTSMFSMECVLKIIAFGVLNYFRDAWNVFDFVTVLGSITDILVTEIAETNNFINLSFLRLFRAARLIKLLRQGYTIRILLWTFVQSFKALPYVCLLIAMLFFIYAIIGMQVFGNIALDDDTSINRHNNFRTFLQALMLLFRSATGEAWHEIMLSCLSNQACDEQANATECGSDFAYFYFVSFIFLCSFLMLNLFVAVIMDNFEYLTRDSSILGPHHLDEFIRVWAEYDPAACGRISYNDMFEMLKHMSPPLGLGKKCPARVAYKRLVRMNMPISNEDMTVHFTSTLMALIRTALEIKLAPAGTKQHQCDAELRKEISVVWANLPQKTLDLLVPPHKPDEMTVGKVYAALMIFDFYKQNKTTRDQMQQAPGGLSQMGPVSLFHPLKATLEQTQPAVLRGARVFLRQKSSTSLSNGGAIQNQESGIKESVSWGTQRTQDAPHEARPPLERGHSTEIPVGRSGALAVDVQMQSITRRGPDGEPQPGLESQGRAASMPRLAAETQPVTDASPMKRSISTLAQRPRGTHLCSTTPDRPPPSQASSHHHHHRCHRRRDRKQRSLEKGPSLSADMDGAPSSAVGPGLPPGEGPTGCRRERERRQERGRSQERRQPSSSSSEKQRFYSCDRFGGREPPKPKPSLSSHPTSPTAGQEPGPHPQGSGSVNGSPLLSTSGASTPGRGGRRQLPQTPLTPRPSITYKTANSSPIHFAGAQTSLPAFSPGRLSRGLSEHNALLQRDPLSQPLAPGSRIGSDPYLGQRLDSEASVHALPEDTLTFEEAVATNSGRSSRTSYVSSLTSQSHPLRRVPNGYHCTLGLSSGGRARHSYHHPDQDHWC
T1 sequence (Q02410 whole entry): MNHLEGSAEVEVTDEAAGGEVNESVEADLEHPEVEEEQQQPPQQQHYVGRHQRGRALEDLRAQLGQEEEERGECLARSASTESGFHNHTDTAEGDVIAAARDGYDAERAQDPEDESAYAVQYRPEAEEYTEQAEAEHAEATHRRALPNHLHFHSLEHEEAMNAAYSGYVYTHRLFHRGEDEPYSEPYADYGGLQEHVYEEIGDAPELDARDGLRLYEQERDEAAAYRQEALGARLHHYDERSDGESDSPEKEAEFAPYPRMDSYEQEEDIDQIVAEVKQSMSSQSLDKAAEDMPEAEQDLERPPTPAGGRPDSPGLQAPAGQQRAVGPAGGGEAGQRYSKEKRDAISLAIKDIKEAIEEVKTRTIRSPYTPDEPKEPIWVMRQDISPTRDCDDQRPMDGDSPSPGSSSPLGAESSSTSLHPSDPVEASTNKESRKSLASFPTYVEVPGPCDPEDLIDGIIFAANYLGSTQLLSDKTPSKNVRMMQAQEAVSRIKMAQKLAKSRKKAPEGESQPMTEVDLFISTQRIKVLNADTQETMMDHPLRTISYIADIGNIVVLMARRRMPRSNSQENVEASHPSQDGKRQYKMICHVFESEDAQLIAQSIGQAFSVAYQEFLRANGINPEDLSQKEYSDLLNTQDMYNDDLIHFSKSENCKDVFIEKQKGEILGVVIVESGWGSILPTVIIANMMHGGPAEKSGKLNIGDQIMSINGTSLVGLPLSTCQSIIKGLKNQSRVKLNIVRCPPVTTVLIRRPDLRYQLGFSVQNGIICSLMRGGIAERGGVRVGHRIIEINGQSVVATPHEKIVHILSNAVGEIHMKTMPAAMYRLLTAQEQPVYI

| SMILES | EC50 [3] | IC50 [4] | IC50 [5] | IC50 [6] | further results |
| --- | --- | --- | --- | --- | --- |
| O=C(O)Cc1sc(Nc2ccc(Cl)cc2)nc1-c1cccs1 | – | – | – | – | IC50 [1]: 16 µM (active); IC50 [2]: > 50 µM (inactive) |
| O=C(Cc1cccc2ccccc12)Nc1ccc(Br)cc1C(=O)O | 5.96 µM (active) | – | – | – | IC50 (Vero): > 25 µM (active) |
| CC1(C)CC(=O)c2c(-c3ccc(Cl)cc3)n[nH]c2C1 | – | > 100 µM (not active) | > 100 µM (inactive) | 5.02 µM (active) | – |
| Nc1nnc(-c2ccc(Cl)cc2)[nH]1 | – | > 100 µM (not active) | > 100 µM (inactive) | 24.5 µM (active) | – |
| CN1CSC2=C(C#N)C(c3cccc(OCc4ccccc4)c3)CC(=O)N2C1 (configuration not stated) | – | – | – | – | IC50 [1]: 7.59 µM (active); IC50 [2]: 47.6 µM (active) |
| Cc1ccccc1C(=O)Nc1c(C(=O)N(CCN(C)C)Cc2ccco2)oc2ccccc12 | 0.473 µM (active) | – | – | – | EC50 [7]: 4.22 µM (active) |
| COc1ccccc1/C=C/CN1CCCC(CCC(=O)NCc2ccc(F)c(F)c2)C1 (configuration not stated) | – | – | – | – | EC50 [8]: < 0.1 µM (active); EC50 [9]: > 60 µM (not active); EC50 [7]: 0.168 µM (active); EC50 (cells): 0.043 µM (active) |
| COc1ccc(-c2n[nH]c3c2C(=O)CC(C)(C)C3)cc1 | – | > 100 µM (not active) | > 100 µM (inactive) | 3.57 µM (active) | – |
| Cn1ncc2c1ncn1c(-c3ccc(Cl)cc3Cl)nnc21 | – | > 100 µM (not active) | > 100 µM (inactive) | > 100 µM (inactive) | – |
| Cc1[nH]n(C)c(=O)c1C(=O)c1c(-c2c(Cl)cccc2Cl)noc1C | 4.22 µM (active) | – | – | – | AC50 [10]: 5.13 µM (active); EC50 (Protein RecA): 1.71 µM (active) |
